Data taken from publication PMC12655551, “Design, Synthesis, and Evaluation of Pyrrole-Based Selective MAO-B Inhibitors with Additional AChE Inhibitory and Neuroprotective Properties Identified via Virtual Screening” (Pharmaceuticals, 2025).

Target: T1, recombinant human MAO-B (hMAOB) (Homo sapiens, UniProt P27338)
T1 sequence (P27338 1-520): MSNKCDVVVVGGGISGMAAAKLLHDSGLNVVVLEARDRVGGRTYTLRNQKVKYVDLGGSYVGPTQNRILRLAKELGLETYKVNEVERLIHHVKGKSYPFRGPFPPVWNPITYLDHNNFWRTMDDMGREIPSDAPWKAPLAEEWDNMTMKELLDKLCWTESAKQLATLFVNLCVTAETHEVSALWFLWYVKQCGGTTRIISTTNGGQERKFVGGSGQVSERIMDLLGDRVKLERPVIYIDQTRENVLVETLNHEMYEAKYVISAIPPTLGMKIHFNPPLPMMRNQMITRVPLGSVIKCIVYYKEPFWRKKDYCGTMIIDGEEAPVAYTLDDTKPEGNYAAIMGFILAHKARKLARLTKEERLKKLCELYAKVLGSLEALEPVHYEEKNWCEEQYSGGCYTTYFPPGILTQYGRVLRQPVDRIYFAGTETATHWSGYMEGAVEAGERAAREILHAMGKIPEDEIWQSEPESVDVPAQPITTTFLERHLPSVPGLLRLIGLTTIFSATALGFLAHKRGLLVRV
Experiment: biochemical
Assay type: biochemical
Conditions: 1 µM compound
Method: Monoamine oxidase (MAO) activity for both recombinant human MAO-A (hMAOA) and MAO-B (hMAOB) was assessed using a fluorometric assay based on the Amplex® UltraRed reagent. This method, originally reported by Bautista-Aguilera et al. and later adapted with minor changes by Kasabova-Angelova et al., detects hydrogen peroxide or peroxidase activity present in enzymes or biological samples. In this assay, Amplex® Red reacts in a 1:1 molar ratio with hydrogen peroxide in the presence of peroxidase, producing the red-fluorescent compound resorufin. Due to resorufin’s strong extinction coefficient (58,000 ± 5000 cm^−1·M^−1), measurements could be accurately taken using either fluorometric or spectrophotometric methods. […] The control conditions included the use of purified hMAOA or hMAOB in reaction buffer, enzyme solutions with hydrogen peroxide, and buffer alone. All the test compounds were initially prepared at a 1 µM final concentration. These compounds were combined with either hMAOA or hMAOB and loaded into a 96-well plate (with eight replicates per test compound), followed by incubation for 30 min at 37 °C in the dark. Subsequently, a 50 µL detection mix was added to each well. This mix contained Amplex® Red, horseradish peroxidase (HRP), and tyramine substrate, all prepared in a reaction buffer. As this enzymatic reaction proceeded continuously, the fluorescence signal was recorded every 30 min (at 0, 30, 60, 90, 120, and 150 min) to track enzymatic kinetics.

SMILES: Cc1ccc(C)n1-c1ccc(CC(=O)O)cc1 [EM-DC-27, [4-(2,5-dimethyl-1H-pyrrol-1-yl)phenyl]acetic acid]
- inhibition at 1 µM: 50 ± 7.1%

SMILES: Cc1ccc(C)n1C(Cc1cnc[nH]1)C(=O)O (centres unmarked) [EM-DC-19, 2-(2,5-dimethyl-1H-pyrrol-1-yl)-3-(2H-imidazol-4-yl)propanoic acid]
- inhibition at 1 µM: 50 ± 7.1%
